According to the Deep4Chem optical property database:
Blank lines part the entries; values can stand above or below the compound they belong to.

Test: solvent given as SMILES

emission maximum (in C1CCCCC1): 400 nm | emission maximum (in C1CCOC1): 406 nm | emission maximum (in C1COCCO1): 405 nm | emission maximum (in CC#N): 411 nm | emission maximum (in CC(C)(C)O): 410 nm | emission maximum (in CC(C)O): 412 nm | emission maximum (in CCCCCC): 399 nm | emission maximum (in CCCCO): 414 nm | emission maximum (in CCO): 414 nm | emission maximum (in CCOC(C)=O): 405 nm | emission maximum (in CN(C)C=O): 409 nm | emission maximum (in CO): 416 nm | emission maximum (in CS(C)=O): 415 nm | emission maximum (in ClC(Cl)Cl): 401 nm | emission maximum (in ClCCl): 412 nm | emission maximum (in O): 452 nm | emission maximum (in OCCO): 421 nm
Structure (SMILES): Cc1cc(O)c(C(C)C)cc1/N=C/c1ccc(O)cc1

emission maximum (in CC#N): 552 nm
Structure (SMILES): N#C/C(=C\c1ccc([N+](=O)[O-])cc1)c1nc(-c2ccccc2)cs1

emission maximum (in C1CCCCC1): 444 nm | emission maximum (in C1CCOC1): 540 nm | emission maximum (in CC#N): 573 nm | emission maximum (in CS(C)=O): 583 nm | emission maximum (in ClCCl): 560 nm
Structure (SMILES): CN(C)c1ccc(C#Cc2ncnc3ccccc23)cc1

emission maximum (in ClCCl): 364 nm
Structure (SMILES): Cc1cccc2cc(C)c3c4ccccc4[nH]c3c12

emission maximum (in C1CCCCC1): 478 nm | emission maximum (in CC#N): 480 nm | emission maximum (in CO): 475 nm | emission maximum (in ClCCl): 486 nm | emission maximum (in O): 475 nm
Structure (SMILES): c1ccc(-c2nc(-c3cccc4ccccc34)n3ccccc23)cc1

emission maximum (in C1CCOC1): 442 nm | emission maximum (in CC#N): 550 nm | emission maximum (in CS(C)=O): 589 nm | emission maximum (in ClC(Cl)Cl): 436 nm
Structure (SMILES): N=c1oc2ccccc2cc1-c1ccc([N+](=O)[O-])cc1

emission maximum (in C1COCCO1): 472 nm | emission maximum (in CC#N): 475 nm | emission maximum (in CCCCOCCCC): 475 nm | emission maximum (in CCOC(C)=O): 469 nm
Structure (SMILES): Clc1nc(Cl)nc(Nc2ccc3c4cccc5cccc(c6cccc2c63)c54)n1

emission maximum (in CC#N): 423 nm | emission maximum (in CCCCCC): 380 nm
Structure (SMILES): Nc1ccc(/C=C/c2ccccc2)cc1

emission maximum (in O): 542 nm
Structure (SMILES): CC[n+]1nc2ccc(N(C)C)cc2c2cc(C)ccc21

emission maximum (in ClCCl): 402 nm
Structure (SMILES): CCOC(=O)c1c(-c2cc3ccccc3oc2=O)nn(-c2ccc(Cl)cc2)c1C(=O)OCC

Further lines, the compound ahead of its results:

Structure (SMILES): Cc1ccc(CN2/C(=C/C=C3\CCCC(/C=C/C4=[N+](Cc5ccc(C)cc5)c5ccccc5C4(C)C)=C3Cl)C(C)(C)c3ccccc32)cc1
emission maximum (in CO): 813 nm

Structure (SMILES): Nc1ccc2c(-c3ccc(C(=O)CN4C(=O)CCC4=O)cc3C(=O)[O-])c3ccc(=[NH2+])c(S(=O)(=O)[O-])c-3oc2c1S(=O)(=O)[O-]
emission maximum (in O): 519 nm

Structure (SMILES): CCCCOc1ccc(-c2oc3cc4n(c3c2-c2ccc(OCCCC)cc2)[B-](F)(F)[N+]2=Cc3cc5oc(-c6ccc(OCCCC)cc6)c(-c6ccc(OCCCC)cc6)c5n3[B-](F)(F)[N+]2=C4)cc1
emission maximum (in C1CCOC1): 638 nm | emission maximum (in CN(C)C=O): 644 nm | emission maximum (in CS(C)=O): 647 nm | emission maximum (in Cc1ccccc1): 641 nm | emission maximum (in ClC(Cl)Cl): 646 nm | emission maximum (in ClCCl): 646 nm

Structure (SMILES): C[n+]1c2c(c(-c3ccccc3)c3c1CCCC3)CCCC2
emission maximum (in CCO): 420 nm

Structure (SMILES): CN(CC(O)c1cccc(O)c1)c1ccc([N+](=O)[O-])c(C2CC(c3cccc4ccccc34)=NN2c2ccccc2)c1 (stereo not given)
emission maximum (in C1CCCCC1): 495 nm | emission maximum (in C1CCOC1): 467 nm | emission maximum (in C1COCCO1): 454 nm | emission maximum (in CC#N): 526 nm | emission maximum (in CC(C)O): 511 nm | emission maximum (in CCOC(C)=O): 498 nm | emission maximum (in CCOCC): 497 nm | emission maximum (in CO): 514 nm | emission maximum (in Cc1ccccc1): 497 nm | emission maximum (in ClC(Cl)Cl): 451 nm | emission maximum (in O): 518 nm

Structure (SMILES): CC1(C)C(/C=C/C2=C(Oc3ccc(CCN=C=S)cc3F)C(=C/C=C3/N(CCCS(=O)(=O)[O-])c4ccccc4C3(C)C)/CCC2)=[N+](CCCS(=O)(=O)[O-])c2ccccc21
emission maximum (in CO): 797 nm

Structure (SMILES): CCCCCCCCCCCCCCCCCCOC(=O)/C=C/C1=CC2=C(c3c(C)cc(C)cc3C)c3cccn3[B-](F)(F)[N+]2=C1
emission maximum (in ClCCl): 569 nm

Structure (SMILES): c1ccc2[nH]c(-c3ccc(-c4ccc(-c5ccc(-c6nc7ccccc7[nH]6)cc5)cc4)cc3)nc2c1
emission maximum (in CN(C)C=O): 409 nm

Structure (SMILES): COc1ccc(C2=N/C(=C\c3ccc(C#N)cc3)C(=O)O2)cc1OC
emission maximum (in C1COCCO1): 489 nm
